Columns and labels:
Type in all cases: cell-based, human
HS181 cells = assay: Single cell survival / cell adhesion, 1 day after plating (Example 1)
Method: Human ES cells were cultured on r-laminin-521-coated laboratory dishes in chemically defined O3 medium (described in Rodin et al., Nature Biotechnol., vol. 28, pp. 611-615 (2010)) at 37° C. in 5% CO2. Cells were routinely passed once every 10-12 days by exposure to Trypsin-EDTA solution (GIBCO Invitrogen) for 5 minutes at 37° C. They were then gently pipetted to break into single-cell suspension and defined trypsin inhibitor (GIBCO Invitrogen) was added. The cell suspension was centrifuged […], the supernatant discarded, the cell pellet resuspended in prewarmed O3 medium, and cells were then passed through a 40 μm sieve. After that cells were plated on new r-laminin-521-coated dishes at a concentration 30 Kcells/cm^2 (1:25-1:30 split ratio). Cells were fed once a day with fresh medium prewarmed in an incubator for 1 hour, except for the first day after a passage, when only a few drops of fresh medium were added. Control cells of the same line were cultured on Matrigel (BD Biosciences) in O3 medium as described in Rodin et al., Nature Biotechnol., vol. 28, pp. 611-615 (2010). Control cells were passaged in pieces.
Ninety-six-well tissue cell culture plates were coated overnight at 4° C. with sterile solutions of the ECM proteins mouse LN-111 (Invitrogen), human recombinant LN-511, and human recombinant LN-521, all at a concentration of 30 μg/ml (5 μg/cm^2). For control cells, BD Matrigel™ hESC qualified (BD Biosciences) was used according to the manufacturer's instructions.
The assay was performed as described (Extracellular Matrix Protocols, 2000). Briefly, 96-well plates were coated by extracellular matrix proteins as described above and blocked by O3 medium containing bovine serum albumin. The ES cells were plated at a cell density of 600 cell/mm^2 upon extracellular matrix-coated plates and were left to adhere for either 1 hour or 1 day at the cell incubator. Non-adherent cells were washed away, and adherent cells were fixed for 20 min by 5% glutaraldehyde, stained by 0.1% Crystal Violet.

hES cells [1] = assay: Cell survival assay, 24 hours (Example 2)
Method: Tissue cell culture plates were coated overnight at 4° C. with sterile solutions of the ECM proteins, such as human recombinant LN-521, all at a concentration of 30 μg/ml (5 μg/cm^2). Control plates were coated with Matrigel according to the STEMCELL Technologies' instructions. Prior to use, dishes were pre-warmed in an incubator for one hour after which prewarmed O3 medium was added without additional washing of the dish. After applying a fresh LN-521 solution to a new dish, the remaining LN-521 solution could be used at least once more. All the adhesion, survival, and inhibition of survival experiments were carried out using fresh coating materials.
Briefly, 96-well plates were coated by extracellular matrix proteins as described above and blocked by O3 medium containing bovine serum albumin. The ES cells were plated at cell density of 50,000 cells/cm^2 onto extracellular matrix-coated plates and left to adhere for 1 hour in a cell incubator. After that the plates were washed 3 times with the medium to remove the non-adherent cells, and then the adherent cells were fixed for 20 minutes by 5% glutaraldehyde, stained by 0.1% Crystal Violet. (Kebo Lab, Spanga, Sweden, www.kebolab.se). After one hour and 3 washes with water, Crystal Violet was extracted with 10% acetic acid and quantified by measuring optical density at 570 nm. All the experiments were performed in quadruplicate.
The survival assay was performed as described for the cell adhesion assay above, except that the cells were left in the cell incubator for 24 hours. For inhibition of survival assay, the cells were kept in a medium with function blocking antibodies at the concentrations recommended by the manufacturer or pathway inhibitors at concentrations indicated in the text for 30 minutes, and then plated on the coated dishes. All the experiments were performed in quadruplicate.
Pluripotent hES cells express α1, α5, β1, β2 and γ1 laminin chains. To compare the adhesion and clonal survival of hES cells plated from single cell suspension to different coating substrata, hES cells growing as monolayers on LN-511 or as clusters on a feeder layer were trypsinized into single cell suspension in O3 medium and plated on cell culture dishes coated with Matrigel, LN-111, LN-511, LN-521 or a mixture of LN-511 and LN-521, in the absence or presence of a ROCK inhibitor (Y-27632) and analyzed after 24 hours.

hES cells [2] = assay: Embryoid body formation; conditions: same three cultures as teratoma test
Method: ES cells from LN-521 coated cell culture dishes were exposed to TrypLE™ Select for one minute at 37° C., 5% CO2, washes two times with a medium, broken into large pieces and cultured in suspension in low adhesion plates. The medium used for this was Knockout DMEM (GIBCO Invitrogen Corporation) supplemented with 2 mM L-glutamine, 20% fetal calf serum (GIBCO Invitrogen Corporation), 0.1 mM β-mercaptoethanol (GIBCO Invitrogen Corporation) and 1% non-essential amino acids (GIBCO Invitrogen Corporation). After 1-2 weeks in suspension, the embryoid bodies were transferred onto gelatin coated tissue cell culture 96-well plates (Sarstedt), cultured for 1-2 weeks, then fixed, stained with antibodies against markers of all three embryonic germ line layers (smooth muscle actin, MAP-2 and α-fetoprotein) and analyzed as described above for immunofluorescence.

Substance: LN-521: protein formed by joining α5, β2 and γ1 chains together; human recombinant, produced in HEK293 cells
- adhesion at 1 day without additives compared with dishes including the ROCK inhibitor (HS181 cells; 1 day after plating): similar
- adhesion at 1 day relative to Matrigel without additives (HS181 cells; 1 day after plating, without additives): 20 times
- adhesion at 1 day without additives compared with dishes including the ROCK inhibitor (HS181 cells; 1 day after plating, listed as LN-532): no ROCK inhibitor is necessary
- single cell survival / cells remaining attached 24 hours after plating (HS181 cells; O3 medium without any additives, completely dissociated HS181 cells): survived
- survival of Y-27632 treated human ES cells on LN-521 compared with Matrigel (hES cells [1]; 10 μM of Y-27632, 40,000 cells per 1 cm^2): survived better
- survival on LN-521 compared with LN-511 (hES cells [1]; 24 hours, absence of ROCK inhibitor): significantly higher
- cell shape of cells growing on LN-521 24 hours after plating (hES cells [1]; LN-521 row: absence of ROCK inhibitor, Y-27632 row: presence of ROCK inhibitor): round
- survival relative to Matrigel, exogenous bFGF removed (hES cells [1]; O3 medium without exogenous bFGF): 20 times
- survival of hES cells plated from single cell suspension after 24 hours (hES cells [1]; O3 medium, absence of ROCK inhibitor): did so as single cells
- survival 24 hours after plating in medium lacking all growth factors of the TeSR1 formulation (hES cells [1]; no bFGF, LiCl, GABA, pipecolic acid and TGFβ): survived
- differentiation in vitro: embryoid bodies expressing markers of mesoderm, ectoderm and endoderm (hES cells [2]): retained the competence to form embryoid bodies

Reference: patent US8415156B2, “Recombinant laminin-521” (Biolamina AB, priority 2010, dated 2013)
